The subject of experiment [1] is streptozotocin-induced diabetic mice. The experiment is described as follows: Blood glucose level (BS) in streptozotocin-induced diabetic mice. The conditions noted are these: 30 mg/kg i.p. once a day. It counts as in vivo, C57BL/6J male mice. How it is done:
9-week-old C57BL/6J male mice were purchased and familiarized with an animal facility for 1 week. 200 mg/kg of streptozotocin (streptozotocin; STZ) was administered […] into the peritoneal cavity of 10-week-old mice to prepare streptozotocin-induced diabetic mice (hereinafter also referred to as “STZ administration week 0”). One week after the administration of streptozotocin, blood was collected from the tail vein of the mice, and the blood glucose level (BS) was measured using an automatic blood glucose measuring device (product name: Medisafe (trademark) Mini GR-102, made by Terumo (Co)). Mice having a blood glucose level of 400 mg/dL or more were determined to be diabetic mice.
The SMTP-44D groups, the edaravone group, and the pregabalin group were administered SMTP-44D (0.3 mg/kg, 3 mg/kg, or 30 mg/kg doses, respectively), edaravone (10 mg/kg dose), or pregabalin (10 mg/kg dose) into the peritoneal cavity once a day for 3 consecutive weeks from the day following the first week to the fourth week after STZ administration.
For the above-mentioned STZ group, SMTP-44D groups, edaravone group, pregabalin group, and control group mice, the following measurements were conducted every week from the 0th week, which began on the day when streptozotocin (STZ) was administered, to the 4th week (that is, a total of five times). As algesia tests, the following von Frey test and hot plate test were conducted, and hind plantar blood flow, body weight (BW), and blood glucose level (BS) were measured using the above-mentioned automatic blood glucose measure device. Note, for example, the 0th week represents the 0th day. That is, the measurements were conducted on the 0th, 7th, 14th, 21st, and 28th days.

A short description of experiment [2]: Body weight in diabetic nephropathy model mice. To be noted: 30 mg/kg i.p. once every two days for 10 weeks; 16 weeks old. It is filed as in vivo, Male db/db mice.
In experiment [3] the test system is diabetic nephropathy model mice. In words: Blood glucose level in diabetic nephropathy model mice. It is filed as in vivo, Male db/db mice. The conditions noted are these: 30 mg/kg i.p. once every two days for 10 weeks; 16 weeks old.
Experiment [4] has the same test system. The experiment is described as follows: Urine volume (24 h, metabolic cage). It counts as in vivo, Male db/db mice. The conditions noted are these: 16 weeks old, 24 h urine.
Experiment [5] shares this test system. In words: Tubular regeneration score (HE-stained kidney). It is filed as in vivo, Male db/db mice. The conditions noted are these: 16 weeks old, score 0 to 4.
Experiment [6] has the same test system. The experiment is described as follows: Urinary albumin. To be noted: 30 mg/kg i.p. once every two days for 10 weeks; 16 weeks old.
For experiment [7] the test system is unchanged. In words: Serum creatinine. The conditions noted are these: 16 weeks old.
The mark [8] stands for this setting: 30 mg/kg i.p. once every two days for 10 weeks.
[9] abbreviates: 300 mg/kg orally once every two days for 10 weeks.

`CC(C)=CCC/C(C)=C/CCC1(C)Oc2c(c(O)cc3c2CN([C@H](Cc2ccccc2)C(=O)O)C3=O)CC1O` (some centres unmarked) [SMTP-4D]: the “BS (blood glucose level)” value in experiment [1] (0th week (before dosing)) stood at 203.5 ± 5.5 mg/dL; in experiment [1] (1st week (before dosing)), 535.5 ± 28.7 mg/dL; in experiment [1] (2nd week), 597.3 ± 44.8 mg/dL; in experiment [1] (3rd week), 638.7 ± 34.2 mg/dL; in experiment [1] (4th week), 580.3 ± 42.9 mg/dL.
In the case of `CC(C)=CCC/C(C)=C/CCC1(C)Oc2c(c(O)cc3c2CN(c2cc(C(=O)O)ccc2O)C3=O)CC1O` (centres unmarked) [SMTP-27], the “Body weight compared to the DN group” value in experiment [2] is on record as “No significant changes”. In addition, the “Blood glucose levels compared to the DN group” value in experiment [3] is listed as “No significant changes”. In experiment [4] (setting [8]), this compound registered a Urine volume of 1659.2 ± 270.2 µL. In addition, the Tubular regeneration score in experiment [5] (setting [8]) came out at 0.0±0.0 pts. Also, the Urinary albumin in experiment [6] was found to be 0.3 ± 0.1 mg/h/kg. Also, the Serum creatinine in experiment [7] (setting [8]) was 0.4 ± 0.1 mg/dL.
`CN(C)C(=N)N=C(N)N` [metformin]: in experiment [4] (setting [9]), the Urine volume was determined as 1678.3 ± 250.4 µL. Also, in experiment [5] (setting [9]), the Tubular regeneration score was found to be 0.5±0.2 pts. In addition, the Serum creatinine in experiment [7] (setting [9]) was 0.6 ± 0.0 mg/dL.
